What was measured:
Assay in all cases: NCI-60 single-dose antiproliferative assay (SRB)
Assay type in all cases: cell-based
HCC-2998 = details: Homo sapiens; 10 μM single dose; HCC-2998, Colon cancer; read-out: Cell Growth inhibition Percent
Procedure, shortened: (§1)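 Cells grown in RPMI 1640 with 5% FBS and 2 mM L-glutamine were plated, left 24 h at 37 °C, then exposed to compound at a single 10 µM final concentration for 48 h. Adherent cells were TCA-fixed, SRB-stained and read at 515 nm; growth was expressed relative to time-zero and untreated controls.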

HL-60(TB) = details: Homo sapiens, 10 μM single dose, Leukemia, read-out: Cell Growth inhibition Percent
NCI/ADR-RES = details: Homo sapiens, 10 μM single dose, Ovarian Cancer, read-out: Cell Growth inhibition Percent
Procedure, shortened: as §1

SK-MEL-28 = details: Homo sapiens; 10 μM single dose; SK-MEL-28, Melanoma; read-out: Cell Growth inhibition Percent
Procedure, shortened: as §1

UACC-257 = details: Homo sapiens; 10 μM single dose; UACC-257, Melanoma; read-out: Cell Growth inhibition Percent
Procedure, shortened: as §1

`O=C(Nc1ccc(NC=C2C(=O)Nc3ccccc32)cc1)Nc1nccs1` [Compound 15c, 1-{4-[((2-Oxoindolin-3-ylidene)methyl)amino]phenyl}-3-(thiazol-2-yl)urea] gave an inhibition at 10 µM (HCC-2998) of 26.1%, an inhibition at 10 µM (HL-60(TB)) of 58% and an inhibition at 10 µM (NCI/ADR-RES) of 59.2%. For the same compound, the inhibition at 10 µM (SK-MEL-28) was 38.7% and the inhibition at 10 µM (UACC-257) was 28.4%.
